“Also recorded” adds a separate entry of the source.
What was measured:
Format in all cases: cell-based, human
[1] = system: JEG-3 cells; assay: Annexin V-FITC staining of extracellular phosphatidylserine (apoptosis) in JEG-3 cells; settings: for extracellular annexin-V-reactive phosphatidylserine: 100 nM
Description: All twelve panels depict either phase contrast (1, 4, 7, 10), confocal laser microscope (2, 5, 8, 11) or phase contrast/confocal merged images (3, 6, 9, 12). Panels 1 to 3 depict untreated control JEG-3 cells for cells in panels 4 to 6 which have been treated with GnRH I (100 nM) for 24 h. All cells have been exposed while live to an annexin V recombinant protein conjugated to the FITC fluorophore. The annexin V will bind specifically only to phosphatidlyserine (PS) lipids usually only expressed on the intracellular side of the plasma membrane lipid bilayer. An early sign of apoptosis is the translocation of these PS lipids from the intracellular side of the membrane to the outer aspect of the bilayer. […] Panels 10 to 12 depict cells exposed to GnRH I for 48 h while panels 7 to 9 serve as unstimulated contemporaneous controls. […] The cellular levels of caspase 3 and procaspase 3 were assessed by specific immunoblotting of JEG-3 or BPH-1 whole cell (w-c) lysates from cells stimulated continuously with GnRH I for the times depicted.
A similar experimental approach was employed for the transfer of this study to BPH-1 cells, however as the MAPK under study in these cells was p38α much lower dose of SB203580 (1 μM) could be employed as the compound has a much greater inhibitory potency against p38 compared to JNK.
Thus we have shown that upon continuous GnRH ligand stimulation of either JEG-3 or BPH-1 there is a retardation of cell growth, however we were interested as to whether there was any genuine induction of cellular apoptosis recently reported to occur in several tumour cell lines (Soon et al (2002) J. Clin. Endocrinol. Metab. 87, 4580-4586). […] Initially we measured the effects of GnRH stimulation upon the ultrastructural integrity of the cells plasma membrane. A well documented early event in apoptosis is a reversal in the polarity of many plasma membrane molecules such as phosphatidylserine (PS). At an early stage of cellular apoptosis there is a significant translocation of PS from the inner to the outer envelope of the plasma membrane. […]

[2] = system: Gαi-type G protein; assay: Inhibition of forskolin-stimulated cAMP accumulation in BPH-1 cells; settings: for FSK-stimulated intracellular cAMP accumulation after ligand pre-exposure: 100 nM, pre-exposure 10, 30, 60 minutes; for effect of PTX on ligand-mediated inhibition of FSK-stimulated cAMP accumulation: 60 minute pre-exposure, PTX 200 ng/ml 16 h
Excerpt: In both BPH-1 and JEG-3 cells GnRH and Ant 135-25 can antagonize forskolin (FSK) stimulated intracellular cAMP accumulation. Panels a and b respectively depict the effects of FSK, GnRH I and Ant 135-25 upon intracellular levels of cAMP in BPH-1 and JEG-3 cells measured using a calorimetric Biomol cAMP assay kit. […] Each histogram in panels a to d depicts the mean±s.e. mean of three to four experimental replicates of the cAMP accumulation assay.
Thus we noted that when cyclic adenosine monophosphate levels (cAMP) were measured using a commercially available […] assay system (Biomol) the ability of forskolin (1 μM in JEG-3 and 3 μM in BPH-1, sufficient to give a 50% Rmax response in each case) was blunted with extended cellular pre-treatment times (10 to 60 minutes) with either 100 nM GnRH I or Ant 135-25 (FIG. 9, panel a-BPH, panel b-JEG). […] Therefore it appears that both ligands can efficiently activate the adenylate cyclase inhibitory activity of Gαi in both cell models tested.

[3] = system: PLC-β; assay: Inositol phosphate accumulation in BPH-1 cells; settings: for inositol phosphate accumulation: 60 minutes, 10 mM LiCl, doses up to 50 μM
Description: BPH-1 cells were pre-incubated with ^3H-myoinositol (1 μCi/ml) for 48 h prior to ligand stimulation (60 minutes). Ligand stimulated inositol phosphate production was measured in the presence of 10 mM LiCl. […] IP accumulation can be used as a read out/marker for Gαq activation since the activation of PLCβ is PTX-resistant.

## C[S+]([O-])c1ccc(-c2nc(-c3ccncc3)c(-c3ccc(F)cc3)[nH]2)cc1 (stereo not shown) [SB203580]
[1]; 20 μM SB203580 with 100 nM GnRH I, 48 h
  effect on GnRH I-induced annexin V-FITC staining (pro-apoptotic state): significant reduction in extent of cells entering a pro-apoptotic state; also recorded: significant reduction in the degree of annexin-V-FITC staining

## Ac-D-Nal(2)-D-4-ClPhe-D-Pal-Ser-1-MePal-D-IsopropylLys-Leu-IsopropylLys-Pro-D-AlaNH2 [Ant 135-25]
[2]
  FSK-stimulated intracellular cAMP accumulation after ligand pre-exposure: significantly reduced; also recorded: blunted
  effect of PTX on ligand-mediated inhibition of FSK-stimulated cAMP accumulation: can be specifically inhibited with a 16 h pre-incubation of the cells with 200 ng/ml of PTX; also recorded: attenuated by a 16 h pre-treatment with 200 ng/ml PTX
[3]
  inositol phosphate accumulation: only high doses of GnRH I and Ant 135-25 cause any significant accumulation of inositol phosphates; also recorded: small capacity to induce inositol phosphate accumulation

## GnRH I: Gonadotropin-Releasing Hormone, a decapeptide; the original form of GnRH, re-named GnRH I
[1]; 24 h
  extracellular annexin-V-reactive phosphatidylserine: no significant expression of annexin-V-reactive PS on the extracellular surface of the plasma membrane
[1]; 48 h
  extracellular annexin-V-reactive phosphatidylserine: significant expression of extracellular annexin-V-reactive PS; also recorded: cells begin to become anti-annexin V-FITC immunoreactive; also recorded: considerable amount of external membrane annexin-V-reactive PS
[2]
  FSK-stimulated intracellular cAMP accumulation after ligand pre-exposure: significantly reduced; also recorded: blunted
  effect of PTX on ligand-mediated inhibition of FSK-stimulated cAMP accumulation: can be specifically inhibited with a 16 h pre-incubation of the cells with 200 ng/ml of PTX; also recorded: attenuated by a 16 h pre-treatment with 200 ng/ml PTX
[3]
  inositol phosphate accumulation: only high doses of GnRH I and Ant 135-25 cause any significant accumulation of inositol phosphates; also recorded: small capacity to induce inositol phosphate accumulation
[3]; PTX 200 ng/ml 16 h, GnRH I 50 μM
  effect of pertussis toxin pre-incubation on induced inositol phosphate accumulation: abrogated by a 16 h pre-incubation of the BPH-1 cells with 200 ng/ml of pertussis toxin

From patent US7361633B2, “Screening method and anti-tumor drug candidate obtained therefrom” (Ardana Bioscience Limited, priority 2002, dated 2008)
